# Reference: patent publication US20170022171A1, “2,5-DISUBSTITUTED CYCLOPENTANECARBOXYLIC ACIDS AND THEIR USE” (Bayer Pharma Aktiengesellschaft, priority 2014, published 2017)
# What was measured:
# Assay type in all cases: biochemical
# MMP-1 = target: T1, MMP-1 (Homo sapiens, UniProt P03956); test: In vitro MMP-1 inhibition test
# T1 construct: purchased R&D Systems 901-MP
# T1 sequence (P03956 100-469): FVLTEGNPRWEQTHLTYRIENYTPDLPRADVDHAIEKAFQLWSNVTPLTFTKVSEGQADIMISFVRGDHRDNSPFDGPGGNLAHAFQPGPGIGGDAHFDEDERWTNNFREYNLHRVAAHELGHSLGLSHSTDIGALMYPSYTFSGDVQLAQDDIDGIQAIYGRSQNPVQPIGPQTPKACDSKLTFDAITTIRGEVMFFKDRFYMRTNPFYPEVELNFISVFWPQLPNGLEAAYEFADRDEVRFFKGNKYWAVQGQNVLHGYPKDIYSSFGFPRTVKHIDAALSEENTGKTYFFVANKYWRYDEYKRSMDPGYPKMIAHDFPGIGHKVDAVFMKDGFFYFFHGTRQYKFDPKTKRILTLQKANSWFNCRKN
# Excerpt: (§1) The MMP-mediated amidolytic cleavage of a suitable peptide substrate leads to an increase in fluorescent light here too. The signal intensity of the fluorescent light is directly proportional to the enzyme activity. The active concentration of a test compound at which half the enzyme is inhibited (50% signal intensity of the fluorescent light) is reported as the IC50 value.
# (§2) Recombinant MMP-1 (from R&D Systems, 901-MP) is chemically activated in accordance with the manufacturer's instructions using APMA. 1 μl of the test compound to be analysed (as a solution in DMSO, suitable concentrations, for example, 1 nM to 30 μM) is pipetted into 24 μl of activated enzyme (final concentration, for example, 2 nM) in reaction buffer (50 mM Tris/HCl pH 7.5, 10 mM CaCl2, 150 mM NaCl, 0.05% Brij®-35) in a white 384-hole microtiter plate (MTP). The enzymatic reaction is started by adding the intramolecularly quenched Mca-Pro-Leu-Gly-Leu-Dpa(Dnp)-Ala-Arg-NH2 substrate (final concentration, for example, 10 μM; R&D Systems, ES-001), so as to result in a total test volume of 50 μl. The course of the MMP-1 reaction is measured by measuring the fluorescence intensity (excitation 320 nm, emission 410 nm) over a suitable period of time (for example over 120 min at a temperature of 32° C.).
# MMP-2 = target: T2, MMP-2 (Homo sapiens, UniProt P08253); test: In vitro MMP-2 inhibition test
# T2 construct: purchased R&D Systems 902-MP
# T2 sequence (P08253 110-660): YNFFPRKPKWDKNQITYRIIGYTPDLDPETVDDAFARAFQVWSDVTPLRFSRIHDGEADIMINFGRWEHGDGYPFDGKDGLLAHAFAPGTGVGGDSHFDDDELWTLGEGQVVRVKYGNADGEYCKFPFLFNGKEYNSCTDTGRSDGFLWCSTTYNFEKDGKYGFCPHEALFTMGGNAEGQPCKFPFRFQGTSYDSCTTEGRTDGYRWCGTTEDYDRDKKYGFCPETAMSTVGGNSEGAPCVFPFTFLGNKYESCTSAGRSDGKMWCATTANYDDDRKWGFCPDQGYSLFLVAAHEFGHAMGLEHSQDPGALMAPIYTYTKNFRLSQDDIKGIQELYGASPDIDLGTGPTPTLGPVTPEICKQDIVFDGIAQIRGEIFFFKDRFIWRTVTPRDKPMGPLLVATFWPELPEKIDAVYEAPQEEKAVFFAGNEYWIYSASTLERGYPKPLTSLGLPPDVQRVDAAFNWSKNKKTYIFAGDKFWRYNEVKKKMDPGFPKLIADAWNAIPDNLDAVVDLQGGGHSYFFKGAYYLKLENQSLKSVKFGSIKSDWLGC
# Excerpt: as §1
# as §2, with “MMP-2” for “MMP-1”, “902-MP)” for “901-MP)”
# MMP-9 = target: T3, MMP-9 (Homo sapiens, UniProt P14780); test: In vitro MMP-9 inhibition test
# T3 construct: purchased R&D Systems 911-MP
# T3 sequence (P14780 107-707 limits assumed): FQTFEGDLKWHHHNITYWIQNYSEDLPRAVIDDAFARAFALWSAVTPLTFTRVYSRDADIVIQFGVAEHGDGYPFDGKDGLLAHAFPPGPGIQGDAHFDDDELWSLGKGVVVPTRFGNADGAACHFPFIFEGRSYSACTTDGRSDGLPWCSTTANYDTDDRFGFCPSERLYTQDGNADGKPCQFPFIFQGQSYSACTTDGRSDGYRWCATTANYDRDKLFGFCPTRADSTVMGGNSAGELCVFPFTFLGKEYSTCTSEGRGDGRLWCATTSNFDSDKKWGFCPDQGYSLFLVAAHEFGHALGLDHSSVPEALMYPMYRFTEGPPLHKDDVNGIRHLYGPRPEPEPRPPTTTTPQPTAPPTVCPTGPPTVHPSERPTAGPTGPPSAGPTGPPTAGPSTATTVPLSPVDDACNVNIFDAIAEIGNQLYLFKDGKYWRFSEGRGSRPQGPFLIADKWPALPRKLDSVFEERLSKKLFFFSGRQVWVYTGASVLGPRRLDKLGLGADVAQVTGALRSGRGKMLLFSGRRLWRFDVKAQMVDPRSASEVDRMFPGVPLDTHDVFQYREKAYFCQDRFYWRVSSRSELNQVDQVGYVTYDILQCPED
# Excerpt: as §1
# as §2, with “Recombinant MMP-9” for “Recombinant MMP-1”, “Systems, 911-MP)” for “Systems, 901-MP)”, “example, 0.1” for “example, 2”, “the MMP-9” for “the MMP-1”
Structure (SMILES),IC50 (MMP-1) [nM],IC50 (MMP-2) [nM],IC50 (MMP-9) [nM]
"O=C(O)[C@@H]1[C@@H](Cn2nnc3ccc(C(F)(F)F)cc3c2=O)CC[C@H]1C(=O)c1ccc(OCC2CCCCC2)cc1 (single isomer, unassigned) [Example 41, (+)-(1RS,2RS,5SR)-2-[4-(Cyclohexylmethoxy)benzoyl]-5-{[4-oxo-6-(trifluoromethyl)-1,2,3-benzotriazin-3(4H)-yl]methyl}cyclopentanecarboxylic acid]",3100,97,51
"O=C(O)[C@@H]1[C@@H](Cn2nnc3ccc(C(F)(F)F)cc3c2=O)CC[C@H]1C(=O)c1ccc(OCC2CCCC2)cc1 (single isomer, unassigned) [Example 44, (+)-(1RS,2RS,5SR)-2-[4-(Cyclopentylmethoxy)benzoyl]-5-{[4-oxo-6-(trifluoromethyl)-1,2,3-benzotriazin-3(4H)-yl]methyl}cyclopentanecarboxylic acid]",3600,270,52
"O=C(O)[C@@H]1[C@@H](Cn2nnc3ccc(C(F)(F)F)cc3c2=O)CC[C@H]1C(=O)c1ccc(OCCC2CCCCC2)cc1 (single isomer, unassigned) [Example 52, (+)-(1RS,2RS,5SR)-2-[4-(2-Cyclohexylethoxy)benzoyl]-5-{[4-oxo-6-(trifluoromethyl)-1,2,3-benzotriazin-3(4H)-yl]methyl}cyclopentanecarboxylic acid]",6300,1600,830
"O=C(O)[C@@H]1[C@@H](Cn2nnc3ccc(C(F)(F)F)cc3c2=O)CC[C@H]1C(=O)c1ccc(OCCC2CCCC2)cc1 (single isomer, unassigned) [Example 55, (+)-(1RS,2RS,5SR)-2-[4-(2-Cyclopentylethoxy)benzoyl]-5-{[4-oxo-6-(trifluoromethyl)-1,2,3-benzotriazin-3(4H)-yl]methyl}cyclopentanecarboxylic acid]",15000,1300,940
"CCCCOc1ccc(C(=O)[C@@H]2CC[C@H](Cn3nnc4ccc(C(F)(F)F)cc4c3=O)[C@H]2C(=O)O)cc1 (single isomer, unassigned) [Example 67, (+)-(1RS,2RS,5SR)-2-(4-Butoxybenzoyl)-5-{[4-oxo-6-(trifluoromethyl)-1,2,3-benzotriazin-3(4H)-yl]methyl}cyclopentanecarboxylic acid]",5200,270,61

# Results, then the compound that gave them:
IC50 (MMP-1) [nM],IC50 (MMP-2) [nM],IC50 (MMP-9) [nM],Structure (SMILES)
8400,580,83,"CCCCCCOc1ccc(C(=O)[C@@H]2CC[C@H](Cn3nnc4ccc(C(F)(F)F)cc4c3=O)[C@H]2C(=O)O)cc1 (single isomer, unassigned) [Example 58, (+)-(1RS,2RS,5SR)-2-[4-(Hexyloxy)benzoyl]-5-{[4-oxo-6-(trifluoromethyl)-1,2,3-benzotriazin-3(4H)-yl]methyl}cyclopentanecarboxylic acid]"
21000,4200,470,"O=C(O)[C@@H]1[C@@H](Cn2nnc3ccc(C(F)(F)F)cc3c2=O)CC[C@H]1C(=O)c1ccc(SCc2ccccc2)cc1 (single isomer, unassigned) [Example 75, (+)-(1RS,2RS,5SR)-2-[4-(Benzylsulphanyl)benzoyl]-5-{[4-oxo-6-(trifluoromethyl)-1,2,3-benzotriazin-3(4H)-yl]methyl}cyclopentanecarboxylic acid]"
2900,970,550,"O=C(O)[C@@H]1[C@@H](Cn2nnc3ccc(C(F)(F)F)cc3c2=O)CC[C@H]1C(=O)c1ccc(SCc2cccc(Cl)c2)cc1 (single isomer, unassigned) [Example 77, (+)-(1RS,2RS,5SR)-2-{4-[(3-Chlorobenzyl)sulphanyl]benzoyl}-5-{[4-oxo-6-(trifluoromethyl)-1,2,3-benzotriazin-3(4H)-yl]methyl}cyclopentanecarboxylic acid]"
